# Measured values as given in patent EP4786466A1, “QUINAZOLINE DERIVATIVE, SALT THEREOF, AND PHARMACEUTICAL COMPOSITION COMPRISING SAME AS ACTIVE INGREDIENT” (Korea Research Institute of Chemical Technology, priority 2023, dated 2025).
# Where two headings read alike, the source gives them in different places.
# Tests used:
# [1] = molecular target: T1, Recombinant GST-TAG-MASTL (Homo sapiens, UniProt Q96GX5); test: HTRF-based kinase assay (HTRF KinEASE assay kit); type: biochemical; conditions: for activity at 1 µM: read-out: MASTL activity (%) HTRF (1 µM)
# T1 construct: GST; purchased Thermo Fisher Scientific
# T1 sequence (Q96GX5 1-879): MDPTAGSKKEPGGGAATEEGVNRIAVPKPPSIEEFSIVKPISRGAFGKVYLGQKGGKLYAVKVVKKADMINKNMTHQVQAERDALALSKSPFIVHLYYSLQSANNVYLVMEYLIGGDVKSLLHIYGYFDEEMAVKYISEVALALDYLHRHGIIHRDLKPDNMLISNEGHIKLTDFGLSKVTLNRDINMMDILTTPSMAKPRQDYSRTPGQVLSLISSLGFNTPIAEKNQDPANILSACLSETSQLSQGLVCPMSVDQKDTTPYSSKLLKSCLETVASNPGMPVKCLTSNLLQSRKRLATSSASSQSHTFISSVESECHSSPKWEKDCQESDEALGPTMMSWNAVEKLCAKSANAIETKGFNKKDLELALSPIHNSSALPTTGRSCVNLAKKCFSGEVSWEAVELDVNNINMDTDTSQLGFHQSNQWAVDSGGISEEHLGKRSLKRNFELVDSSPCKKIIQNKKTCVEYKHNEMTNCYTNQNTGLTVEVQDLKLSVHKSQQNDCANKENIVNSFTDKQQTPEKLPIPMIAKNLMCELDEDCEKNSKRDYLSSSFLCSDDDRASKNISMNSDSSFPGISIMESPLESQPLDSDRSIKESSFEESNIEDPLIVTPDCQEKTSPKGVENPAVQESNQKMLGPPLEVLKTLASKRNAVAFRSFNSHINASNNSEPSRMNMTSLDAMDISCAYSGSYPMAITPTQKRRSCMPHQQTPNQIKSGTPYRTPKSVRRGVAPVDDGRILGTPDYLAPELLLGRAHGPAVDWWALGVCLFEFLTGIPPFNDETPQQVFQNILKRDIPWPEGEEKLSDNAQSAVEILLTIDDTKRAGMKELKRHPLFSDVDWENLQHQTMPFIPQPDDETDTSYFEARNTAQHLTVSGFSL
# Source text: Recombinant GST-TAG-MASTL (Thermo Fisher Scientific, MA, USA) was used for HTRF-based kinase assays. The HTRF KinEASE assay kit (CisBio, MA, USA) was used according to the manufacturer's instructions.
# [2] = test system: MCF10A normal breast cancer cell lines; test: Cell viability analysis, WST-8 assay, MCF10A; conditions: compound 1 µM, 72 hours
# Method: (§1) MCF7 breast cancer cell lines and MCF10A normal breast cancer cell lines were treated with serial dilutions of the compounds of the present invention ranging from 1 µM to 15.63 nM for 72 hours. Cell viability was measured by the WST-8 assay (Cyto XTM cell viability assay kit; LPS solution, Daejeon, Korea) according to the manufacturer's instructions.
# pENSA = pENSA level by immunofluorescence (described method: in vitro kinase analysis with GST-tag-MASTL and His-tag-ENSA); type: cell-based; conditions: for pENSA (%) Immunofluor ecense (1 µM): compound 1 µM
# Method in brief: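 In vitro kinase reaction using recombinant GST-tagged MASTL with His-tagged ENSA as substrate; phosphorylated ENSA (pENSA) serves as read-out of MASTL activity. Cell lines named: MCF7 breast cancer and MCF10A.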
# [3] = test system: MCF7 breast cancer cell lines; test: Cell viability analysis, WST-8 assay, MCF7; conditions: for Cell viability (%) WST-8, MCF7 (1 µM): compound 1 µM, 72 hours; for viability at 1 µM: read-out: Cell viability (%) WST-8, MCF7 (1 µM), compound 1 µM, 72 hours; for viability at 1.1 µM: read-out: Cell viability (%) WST-8, MCF7, footnote d: concentration 1.1 µM, 72 hours
# Method: as §1
# MASTL = molecular target: T2, MASTL (Homo sapiens, UniProt Q96GX5); conditions: reported MASTL inhibitors, background art; cited from earlier work
# T2 sequence (Q96GX5 1-879): T1 sequence (Q96GX5 1-879)
# [4] = test system: MCF10A normal breast cell lines; test: Cell viability analysis, WST-8 assay, MCF10A
# Method: as §1
# in vitro = conditions: human, mcf10a cells
# Method: as §1
# [5] = Homo sapiens, MCF-10A, 72 h, read-out: IC50 Cell viability (MCF10A)
# [6] = Homo sapiens, MCF7, 72 h, read-out: IC50(nM) Cell viability (MCF7)
# [7] = Homo sapiens, MCF-10A, 72 h, read-out: IC50(nM) Cell viability (MCF10A)
# [8] = HTRF, read-out: IC50(nM) MASTL activity
# [9] = Homo sapiens, MCF7, 72 h, read-out: IC50 Cell viability (MCF7)
# [10] = read-out: IC50(nM) Cell viability (MCF10A), MCF10A, WST-8, 72 hours
# [11] = read-out: IC50(nM) Cell viability (MCF7), MCF7, WST-8, 72 hours
SMILES,MASTL activity (%) HTRF (1 µM) ([1]; compound 1 µM) [%],"Cell viability (%) WST-8, MCF10A (1 µM) [2] [%]",pENSA (%) Immunofluor ecense (1 µM) (pENSA) [%],"Cell viability (%) WST-8, MCF7 (1 µM) [3] [%]","IC50 [4, 5] [nM]","IC50 [1, 8] [µM]",activity at 1 µM ([1]; compound 1 µM) [%],viability at 1.1 µM (in vitro) [%],"viability at 1.1 µM ([3]; Homo sapiens, MCF7, 72 h) [%]","IC50 [3, 9] [nM]",other results
"COc1ccc(CNc2nc(Nc3cc(C4CC4)[nH]n3)c3ccccc3n2)cc1 [4ad, M^4-(5-cyclopropyl-1G-pyrazol-3-yl)-M^2-(4-methoxybenzyl)quinazoline-2,4-diamine]",65.7,96.0,143,96.4,–,–,–,–,–,–,–
Clc1ccc(Nc2cccc(-c3cn[nH]c3)c2)cc1 [GKI-1],–,–,–,–,–,–,–,–,–,–,IC50 (MASTL): 4900 nM
"c1ccc2c(Nc3cc(C4CC4)[nH]n3)nc(N3CC4CC3CN4)nc2c1 (stereo not shown) [compound 14, 2-(2,5-diazabicyclo[2.2.1]heptan-2-yl)-M-(5-cyclopropyl-1G-pyrazol-3-yl)quinazolin-4-amine Trifluoroacetic acid]",–,–,9.2,–,1700,–,–,–,–,–,"IC50 [1]: 0.593 µM; activity at 1 µM [1]: 25.5%; viability at 1 µM (in vitro): 63.4%; IC50 (pENSA; read-out: IC50(nM) pENSA): 645 nM; viability at 1 µM ([3]; Homo sapiens, MCF7, 72 h): 21.8%; IC50 [3, 6]: 647 nM"
"CCNC(=O)N1CC2CC1CN2c1nc(Nc2cc(C3CC3)[nH]n2)c2ccccc2n1 (stereo not shown) [compound 15a, 5-(4-((5-cyclopropyl-1G-pyrazol-3-yl)amino)quinazolin-2-yl)-M-ethyl-2,5-diazabicyclo[2.2.1]heptane-2-carboxamide]",–,–,86.1,–,–,–,–,–,–,–,"IC50 ([1]; HTRF, unit µM, read-out: IC50 MASTL activity): 1.1 µM; activity at 1.25 µM ([1]; footnote a: concentration 1.25 µM, read-out: MASTL activity (%) HTRF): 61.1%; IC50 [4, 7]: 820 nM; viability at 1.25 µM (in vitro): 37%; viability at 1.25 µM ([3]; Homo sapiens, MCF7, 72 h, read-out: Cell viability (%) WST-8, MCF7, footnote a: concentration 1.25 µM, 72 hours): 61%"
"CC(C)S(=O)(=O)N1CC2CC1CN2c1nc(Nc2cc(C3CC3)[nH]n2)c2ccccc2n1 (stereo not shown) [compound 15h, M-(5-cyclopropyl-1G-pyrazol-3-yl)-2-(5-(isopropylsulfonyl)-2,5-diazabicyclo[2.2.1]heptan-2-yl)quinazolin-4-amine]",–,–,51.7,–,–,0.147,15.7,45,94.5,1700,"IC50 [4, 7]: 833 nM"
"CCCS(=O)(=O)N1CC2CC1CN2c1nc(Nc2cc(C3CC3)[nH]n2)c2ccccc2n1 (stereo not shown) [compound 15j, M-(5-cyclopropyl-1G-pyrazol-3-yl)-2-(5-(propylsulfonyl)-2,5-diazabicyclo[2.2.1]heptan-2-yl)quinazolin-4-amine]",–,–,65.2,–,1300,0.284,31.6,65.2,104,3200,–
"O=S(=O)(c1ccccc1)N1CC2CC1CN2c1nc(Nc2cc(C3CC3)[nH]n2)c2ccccc2n1 (stereo not shown) [compound 15m, M-(5-cyclopropyl-1G-pyrazol-3-yl)-2-(5-(phenylsulfonyl)-2,5-diazabicyclo[2.2.1]heptan-2-yl)quinazolin-4-amine]",–,–,82.6,–,1900,0.49,28.7,82.2,111,4200,–
"O=S(=O)(c1ccc(F)cc1)N1CC2CC1CN2c1nc(Nc2cc(C3CC3)[nH]n2)c2ccccc2n1 (stereo not shown) [compound 15n, M-(5-cyclopropyl-1G-pyrazol-3-yl)-2-(5-((4-fluorophenyl)sulfonyl)-2,5-diazabicyclo[2.2.1]heptan-2-yl)quinazolin-4-amine]",–,–,77.5,–,1300,0.327,32.4,63.9,108,3500,–
"O=S(=O)(c1ccc(F)cc1F)N1CC2CC1CN2c1nc(Nc2cc(C3CC3)[nH]n2)c2ccccc2n1 (stereo not shown) [compound 15o, M-(5-cyclopropyl-1G-pyrazol-3-yl)-2-(5-((2,4-difluorophenyl)sulfonyl)-2,5-diazabicyclo[2.2.1]heptan-2-yl)quinazolin-4-amine]",–,–,90.3,–,2400,0.17,20.3,92.6,119,3700,–
"CC(C)(C)OC(=O)N1CC2CCC1CN2c1nc(Nc2cc(C3CC3)[nH]n2)c2ccccc2n1 (stereo not shown) [compound 19, sdqs,butyl 5-(4-((5-cyclopropyl-1G-pyrazol-3-yl)amino)quinazolin-2-yl)-2,5-diazabicyclo[2.2.2]octane-2-carboxylate]",–,–,84.7,–,–,0.569,39.9,–,–,1100,"IC50 [4, 7]: 810 nM; viability at 1 µM (in vitro): 71.3%; viability at 1 µM ([3]; Homo sapiens, MCF7, 72 h): 41.2%"
"c1ccc2c(Nc3cc(C4CC4)[nH]n3)nc(N3CC4CCC3CN4)nc2c1 (stereo not shown) [compound 20, 2-(2,5-diazabicyclo[2.2.2]octan-2-yl)-M-(5-cyclopropyl-1G-pyrazol-3-yl)quinazolin-4-amine trifluoroacetic acid]",–,–,30.9,–,–,–,–,–,–,–,"IC50 [1]: 0.194 µM; activity at 1 µM [1]: 36.5%; IC50 [4, 7]: 131 nM; viability at 1 µM (in vitro): 3.9%; IC50 (pENSA; read-out: IC50(nM) pENSA): 66.5 nM; viability at 1 µM ([3]; Homo sapiens, MCF7, 72 h): 5.5%; IC50 [3, 6]: 150 nM"
"CC(C)S(=O)(=O)N1CC2CCC1CN2c1nc(Nc2cc(C3CC3)[nH]n2)c2ccccc2n1 (stereo not shown) [compound 24a, M (5-cyclopropyl-1G-pyrazol-3-yl)-2-(5-(isopropylsulfonyl)-2,5-diazabicyclo[2.2.2]octan-2-yl)quinazolin-4-amine]",29.9,15.7,14,4.8,–,0.18,–,–,–,–,"IC50 [4, 10]: 420 nM; IC50 (pENSA; read-out: IC50(nM) pENSA): 263 nM; IC50 [3, 11]: 954 nM"
"O=S(=O)(C1CCCCC1)N1CC2CCC1CN2c1nc(Nc2cc(C3CC3)[nH]n2)c2ccccc2n1 (stereo not shown) [compound 24b, 2-(5-(cyclohexylsulfonyl)-2,5-diazabicyclo[2.2.2]octan-2-yl)-M-(5-cyclopropyl-1G-pyrazol-3-yl)quinazolin-4-amine]",24.8,26.5,36,90.7,–,0.198,–,–,–,–,"IC50 [4, 10]: 684 nM; IC50 (pENSA; read-out: IC50(nM) pENSA): 770 nM"
"O=S(=O)(c1cccs1)N1CC2CCC1CN2c1nc(Nc2cc(C3CC3)[nH]n2)c2ccccc2n1 (stereo not shown) [compound 24d, M-(5-cyclopropyl-1G-pyrazol-3-yl)-2-(5-(thiophen-2-ylsulfonyl)-2,5-diazabicyclo[2.2.2]octan-2-yl)quinazolin-4-amine]",32.9,4.9,2.6,6.4,–,0.597,–,–,–,–,"IC50 [4, 10]: 210 nM; IC50 (pENSA; unit µM, read-out: IC50 pENSA): 1900 nM; IC50 [3, 11]: 626 nM"
"N#Cc1ccccc1S(=O)(=O)N1CC2CCC1CN2c1nc(Nc2cc(C3CC3)[nH]n2)c2ccccc2n1 (stereo not shown) [compound 24e, 2-((5-(4-((5-cyclopropyl-1G-pyrazol-3-yl)amino)quinazolin-2-yl)-2,5-diazabicyclo[2.2.2]octan-2-yl)sulfonyl)benzonitrile]",10.8,2.8,4.1,2.2,–,0.213,–,–,–,–,"IC50 [4, 10]: 184 nM; IC50 (pENSA; unit µM, read-out: IC50 pENSA): 1900 nM; IC50 [3, 11]: 543 nM"
